The record followed here is patent publication US10791741B2, “Plant growth regulator” (JIANGSU HUIFENG BIO TECHNOLOGY CO., LTD., priority 2016, dated 2020).

The subject of this experiment is melon. Description: Comprehensive test on growth regulation for melon by thidiazuron combined with amino-oligosaccharin. In kind it is in vivo. Conditions: 42 mg/kg. The method, then:
1. Comprehensive Test on Growth Regulation for Melon by Thidiazuron Combined with Amino-Oligosaccharin
The thidiazuron and amino-oligosaccharin were diluted with acetone to give a series of concentrations, and the crops were sprayed in the flowering phase to determine the effect of each concentration on crop growth in the field, so as to make a comprehensive evaluation with respect to the carpopodium diameter, fruit setting rate, disease inhibition rate, quality, and yield of the crops. Carpopodium diameter increase rate=(Plant height in water control group−Plant height in treatment group)/Plant height in water control group*100% Fruit setting increase rate=(Stem diameter in treatment group−Stem diameter in water control group)/Stem diameter in water control group*100% Disease reduction rate=(Disease index in water control group−Disease index in treatment group)/Disease index in water control group*100% Single fruit weight increase rate=(weight in treatment group−quality in water control group)/weight in water control group*100% Central sugar increase rate=(Central sugar content in treatment group−Central sugar content in water control group)/Central sugar content in water control group*100%

[1] abbreviates: flowering phase, vs water control.
Where [2] appears, read: sprayed in flowering phase, 1 application.

The structures appear in SMILES notation.

As for `O=C(Nc1ccccc1)Nc1cnns1` [Thidiazuron, thidiazuron], under setting [1], the “Anthracnose index reduction rate (disease reduction rate)” value was determined as 17.6%, the “Carpopodium diameter increase rate” value amounted to 4.0%, the “Central sugar increase rate” value turned out to be 7.4% and the “Fruit setting increase rate” value was 8.6%. Moreover, the “Single fruit weight increase rate” value under setting [1] is on record as 8.9%. Moreover, under setting [2], the Anthracnose index is 17.76, the Carpopodium diameter is reported as 6.65 mm, the Central sugar content is reported as 9.36% and the Fruit setting rate is 27.0%. Also, the Single fruit weight under setting [2] came out at 1.03 kg.
